Data from patent US10344014B2, “Amorphous form of tetracyclic compound” (Chugai Seiyaku Kabushiki Kaisha, priority 2014, dated 2019).

Key:
[1] = Intrinsic dissolution rate, USP chapter 1087 (Example 5); assay type: physicochemical
Protocol: A test of measuring intrinsic dissolution rate (according to USP chapter 1087 “APPARENT […] DISSOLUTION-DISSOLUTION TESTING PROCEDURES FOR ROTATING DISK AND STATIONARY DISK”) was performed on a composition containing the amorphous and crystalline forms (form I crystals) of 9-ethyl-6,6-dimethyl-8-(4-morpholin-4-yl-piperidin-1-yl)-11-oxo-6,11-dihydro-5H-benzo[b]carbazole-3-carbonitrilemonohydrochloride at certain ratios. It was concluded that the dissolution rate was increased when the content of the amorphous was about 15% or higher.

[2] = Residual rate of principal drug by HPLC after storage (Test Example 5); assay type: physicochemical
Protocol: The amorphous substances and the solid dispersions of 9-ethyl-6,6-dimethyl-8-(4-morpholin-4-yl-piperidin-1-yl)-11-oxo-6,11-dihydro-5H-benzo[b]carbazole-3-earbonitrile obtained in Examples 8 to 15 were tested under two conditions: i) they were stored in a thermostatic bath set at 40° C. for 3 months, and ii) they were stored in a thermostatic bath set at 40° C. and 75% RH for 3 months in an open state. Residual rates of the principal drugs were measured under following conditions of high performance liquid chromatography. It was concluded that the amorphous substances and the solid dispersions were chemically stable.
Detector: UV absorptiometer (measurement wavelength: 230 nm)
Column: stainless column of 4.6 mm in inner diameter and 15 cm in length, filled with 3.5 um of octadecylsilyl silica gel for liquid chromatography
Column temperature: fixed temperature about 35° C.
Mobile phase A: mixed solution of acetonitrile/trifluoroacetic acid (2000:1)
Mobile phase B: mixed solution of water/trifluoroacetic acid (2000:1)
Mobile phase supply: controlled concentration gradient with varying mixing ratio of mobile phases A and B as follows.

SMILES	Intrinsic dissolution rate ([1]; Amount of amorphous 5.6%)	Intrinsic dissolution rate ([1]; Amount of amorphous 9.8%)	Intrinsic dissolution rate ([1]; Amount of amorphous 16.8%)	Intrinsic dissolution rate ([1]; Amount of amorphous (%): 0 < Lower than detection limit)	Retention rate after 3 months at 40° C. in 75 % RH ([2]; 40° C. and 75% RH, open state)	Retention rate after 3 months at 40° C. ([2]; thermostatic bath 40° C.)
CCc1cc2c(cc1N1CCC(N3CCOCC3)CC1)C(C)(C)c1[nH]c3cc(C#N)ccc3c1C2=O.Cl [9-ethyl-6,6-dimethyl-8-(4-morpholin-4-yl-piperidin-1-yl)-11-oxo-6,11-dihydro-5H-benzo[b]carbazole-3-carbonitrilemonohydrochloride]	0.0065 mg/cm^2/min	0.0065 mg/cm^2/min	0.0112 mg/cm^2/min	0.0078 mg/cm^2/min	–	–
CCc1cc2c(cc1N1CCC(N3CCOCC3)CC1)C(C)(C)c1[nH]c3cc(C#N)ccc3c1C2=O [Example 8, 9-ethyl-6,6-dimethyl-8-(4-morpholin-4-yl-piperidin-1-yl)-11-oxo-6,11-dihydro-5H-benzo[b]carbazole-3-carbonitrile]	–	–	–	–	99.66	99.60
